These results are taken from ChEMBL document CHEMBL1124132, “Adenosine receptor agonists: synthesis and biological evaluation of 1-deaza analogues of adenosine derivatives” (J Med Chem, 1988).

Assay [1] concerns the target T1, Adenosine receptor A1 (Rattus norvegicus, UniProt P25099).
T1 sequence (P25099 whole entry): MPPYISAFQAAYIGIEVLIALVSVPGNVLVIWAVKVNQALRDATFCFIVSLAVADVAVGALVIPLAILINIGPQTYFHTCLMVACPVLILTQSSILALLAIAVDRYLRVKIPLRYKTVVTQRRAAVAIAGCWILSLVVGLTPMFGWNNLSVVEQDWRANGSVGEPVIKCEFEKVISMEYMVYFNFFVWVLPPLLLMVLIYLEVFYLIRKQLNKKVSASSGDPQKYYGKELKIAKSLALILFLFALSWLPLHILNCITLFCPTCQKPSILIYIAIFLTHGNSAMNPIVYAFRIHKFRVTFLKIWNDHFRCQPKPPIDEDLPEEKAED
Briefly: Inhibition of Adenylate cyclase activity in rat fat cell membrane at adenosine A1 receptor. It counts as cell-based.

In assay [2] the target is T2, Adenosine receptor A1 (Rattus norvegicus) (UniProt P25099).
T2 sequence (whole entry): T1 sequence (P25099 whole entry)
Briefly: Maximal inhibition of adenylate cyclase activity relative to R-PIA for Adenosine A1 receptor (Inhibition by R-PIA=53+/-10%).

Assay [3] can be described thus: A1 selectivity as ratio of EC50 at A2 receptor to IC50 at A1 receptor.
Assay [4] concerns the target T1, Adenosine receptor A1.
Description: Displacement of [3H]PIA from adenosine A1 receptor of rat brain membranes
In assay [5] the target is Adenosine A2 receptor (Homo sapiens, UniProt P29275+P29274).
Description: Stimulation of adenylate cyclase activity in human platelet membrane at A2 receptor
Assay [6] addresses Adenosine A2 receptor (Rattus norvegicus, UniProt P29276+P30543).
The species entered for assay [7] is Homo sapiens. Briefly: Concentration that inhibits platelet aggregation induced by ADP (7 uM) by 50%. It counts as functional.

`OC[C@H]1O[C@@H](n2cnc3c(NC4CCCCC4)cc(Cl)nc32)[C@H](O)[C@@H]1O` registered an IC50 in assay [1] of 2400 nM. Moreover, the relative max inhibition in assay [2] worked out at 114%. The Selectivity in assay [3] was found to be 2. For the same molecule, the inhibitory constant (Ki) in assay [4] turned out to be 47 nM; in assay [6], 8200 nM. The same molecule yielded a half-maximal effective concentration (EC50) in assay [5] of 4800 nM.

Consider `CC(Cc1ccccc1)Nc1ccnc2c1ncn2C1O[C@H](CO)[C@@H](O)[C@H]1O` (stereo partly drawn), for which the midpoint of inhibition in assay [1], the IC50, lay at 630 nM. The relative max inhibition in assay [2] came out at 116%. Also, the Selectivity in assay [3] stood at 10.5. In addition, the inhibition constant (Ki) stood at 7.7 nM in assay [4] and 4900 nM in assay [6]. For the same molecule, the EC50 in assay [5] stood at 6600 nM.

For `OC[C@H]1O[C@@H](n2cnc3c(NC4CCCC4)ccnc32)[C@H](O)[C@@H]1O`, in assay [1], the IC50 was 970 nM. In addition, in assay [2], the relative max inhibition was 107%. Besides, the Selectivity in assay [3] was determined as 27. Moreover, the values for the Ki in assay [4] and in assay [6] were 7.5 nM and 17600 nM, respectively. The molecule also registered an EC50 in assay [5] of 26000 nM.

For the molecule `CC(Cc1ccccc1)Nc1cc(Cl)nc2c1ncn2C1O[C@H](CO)[C@@H](O)[C@H]1O` (stereo partly drawn), in assay [1], inhibition was half-maximal at 960 nM (IC50). The relative max inhibition in assay [2] was found to be 108%. The Selectivity in assay [3] worked out at 3.6. The figures for the Ki in assay [4] and in assay [6] were 18 nM and 3700 nM, respectively. For the same molecule, the EC50 in assay [5] turned out to be 3500 nM.

`CCNC(=O)[C@H]1O[C@@H](n2cnc3c(N)ncnc32)[C@H](O)[C@@H]1O` [NECA] came in with an IC50 in assay [7] of 600 nM.

Consider `CCNC(=O)[C@H]1O[C@@H](n2cnc3c(N)ccnc32)[C@H](O)[C@@H]1O`, for which the IC50 in assay [1] was 1500 nM; in assay [7] it was 5960 nM. Besides, in assay [2], the relative max inhibition was 104%. Further, in assay [3], the Selectivity is 1.9. Also, the Ki stood at 51 nM in assay [4] and 580 nM in assay [6]. This molecule showed an EC50 in assay [5] of 2800 nM.

As for `Nc1ncnc2c1ncn2[C@@H]1O[C@H](CO)[C@@H](O)[C@H]1O` [ADENOSINE], the half-maximal inhibitory concentration (IC50) in assay [7] is 5940 nM.

In assay [1], `OC[C@H]1O[C@@H](n2cnc3c(NC4CCCC4)cc(Cl)nc32)[C@H](O)[C@@H]1O` gave an IC50 of 360 nM. Besides, the relative max inhibition in assay [2] worked out at 107%. For the same molecule, the Selectivity in assay [3] turned out to be 78. The results for the inhibition constant (Ki) in assay [4] and in assay [6] were 1.6 nM and 13200 nM, respectively. The molecule further displayed an EC50 in assay [5] of 28000 nM.

Consider `OC[C@H]1O[C@@H](n2cnc3c(NC4CCCC4)ncnc32)[C@H](O)[C@@H]1O` [N6-CYCLOPENTYLADENOSINE], for which, in assay [6], the inhibition constant (Ki) was found to be 2000 nM.

`OC[C@H]1O[C@@H](n2cnc3c(NC4CCCCC4)ccnc32)[C@H](O)[C@@H]1O` had an IC50 in assay [1] of 1600 nM. The relative max inhibition in assay [2] was determined as 109%. Further, the Selectivity in assay [3] is 12.4. The Ki in assay [4] amounted to 16 nM; in assay [6], 6800 nM. Moreover, the EC50 in assay [5] is 20000 nM.

For the molecule `Nc1ccnc2c1ncn2[C@@H]1O[C@H](CO)[C@@H](O)[C@H]1O`, the results for the half-inhibitory concentration (IC50) in assay [1] and in assay [7] were 6700 nM and 65500 nM, respectively. The relative max inhibition in assay [2] was 97%. For the same molecule, the Selectivity in assay [3] turned out to be 2.7. The figures for the inhibition constant Ki in assay [4] and in assay [6] were 115 nM and 2900 nM, respectively. In addition, the 50% effective concentration (EC50) in assay [5] was 18000 nM.
